This is an account of results in US9204653B2, “5-fluoro pyrimidine derivatives” (DOW AGROSCIENCES LLC, priority 2008, dated 2015).

Each structure is given as a SMILES string. Read-outs that look alike come from different tables or passages of the source.

In this test the test system is Mycosphaerella graminicola; Anamorph: Septoria tritici; Bayer Code SEPTTR. The test can be described thus: Leaf blotch of wheat, foliar fungicide treatment, one day protectant (1DP) or three day curative (3DC). Format: in vivo, Septoria tritici on wheat plants (variety Yuma). Particulars: Zymoseptoria tritici, rating of percent disease control.
Where [1] appears, read: 24 h, one day protectant (1DP), read-out: SETTTR 1DP 25 ppm.
Setting [2] is: 24 h, one day protectant (1DP), read-out: SEPTTR 1DP 100 ppm.
[3] abbreviates: 72 h, three day curative (3DC), read-out: SEPTTR 3DC 25 ppm.
Where [4] appears, read: 72 h, three day curative (3DC), read-out: SEPTTR 3DC 100 ppm.

In the case of `CC[Si](CC)(CC)Nc1nc(OCCc2ccc(Cl)cc2)ncc1F` [Compound 507], the pest or weed control at 25 ppm was in the range of 51 to 75% under setting [1] and 0 to 25% under setting [3]. Moreover, the pest or weed control at 100 ppm under setting [2] is 76 to 100% and the pest or weed control at 100 ppm under setting [4] was 76 to 100%.
In the case of `Nc1nc(OCc2ccsc2)ncc1F` [Compound 508], the pest or weed control at 25 ppm runs as follows: under setting [1], 76 to 100%; under setting [3], 76 to 100%. For the same compound, the pest or weed control at 100 ppm under setting [2] is 76 to 100% and the pest or weed control at 100 ppm under setting [4] was 76 to 100%.
`Nc1nc(OCC2CC2(F)F)ncc1F` (centres unmarked) [Compound 509]: the pest or weed control at 25 ppm by setting is: under setting [1], 0 to 25%; under setting [3], 26 to 50%. Also, the pest or weed control at 100 ppm reads like this: under setting [2], 0 to 25%; under setting [4], 0 to 25%.
Take `Cn1ccc2cc(COc3ncc(F)c(N)n3)ccc21` [Compound 511]: the pest or weed control at 25 ppm reads like this: under setting [1], 51 to 75%; under setting [3], 26 to 50%. The pest or weed control at 100 ppm is, setting by setting: under setting [2], 51 to 75%; under setting [4], 26 to 50%.
For the compound `CCC(Oc1ncc(F)c(N)n1)c1ccc(F)cc1` (centres unmarked) [Compound 513], the pest or weed control at 25 ppm was 76 to 100% under setting [1] and 76 to 100% under setting [3]. Further, the pest or weed control at 100 ppm is, setting by setting: under setting [2], 76 to 100%; under setting [4], 76 to 100%.
On to `Fc1ccc(COc2ncc(F)c(NNc3ccccc3Cl)n2)cc1` [Compound 515], for which the pest or weed control at 25 ppm runs as follows: under setting [1], 0 to 25%; under setting [3], 0 to 25%. In addition, the pest or weed control at 100 ppm was 76 to 100% under setting [2] and 0 to 25% under setting [4].
As to `CCOCNc1nc(OCc2cccc(C#N)c2)ncc1F` [Compound 516], the pest or weed control at 25 ppm by setting is: under setting [1], 76 to 100%; under setting [3], 76 to 100%. Further, the pest or weed control at 100 ppm is, setting by setting: under setting [2], 76 to 100%; under setting [4], 76 to 100%.
With `COC(=O)Oc1ncc(F)c(/N=C/N(C)C)n1` [Compound 517], the pest or weed control at 25 ppm was in the range of 76 to 100% under setting [1] and 76 to 100% under setting [3]. Moreover, the pest or weed control at 100 ppm reads like this: under setting [2], 76 to 100%; under setting [4], 76 to 100%.
As for `CCCCN(C)/C=N/c1nc(OCc2ccc(F)cc2)ncc1F` [Compound 518], the pest or weed control at 25 ppm is, setting by setting: under setting [1], 76 to 100%; under setting [3], 76 to 100%. Also, the pest or weed control at 100 ppm is, setting by setting: under setting [2], 76 to 100%; under setting [4], 76 to 100%.
As for `COc1ccc(COc2ncc(F)c(NC(=O)Nc3ccccc3F)n2)cc1F` [Compound 519], the pest or weed control at 25 ppm under setting [1] lay in the range of 0 to 25% and the pest or weed control at 25 ppm under setting [3] was 0 to 25%. The pest or weed control at 100 ppm by setting is: under setting [2], 0 to 25%; under setting [4], 0 to 25%.
As to `N#Cc1ccnc(COc2ncc(F)c(N)n2)c1` [Compound 522], the pest or weed control at 25 ppm lay in the range of 0 to 25% under setting [1] and 0 to 25% under setting [3]. The pest or weed control at 100 ppm reads like this: under setting [2], 26 to 50%; under setting [4], 0 to 25%.
`COc1ccc(OC(=O)Oc2ncc(F)c(/N=C/N(C)C)n2)cc1` [Compound 523]: the pest or weed control at 25 ppm lay in the range of 76 to 100% under setting [1] and 76 to 100% under setting [3]. Moreover, the pest or weed control at 100 ppm runs as follows: under setting [2], 76 to 100%; under setting [4], 76 to 100%.
Regarding `O=[N+]([O-])c1ccccc1SNc1nc(OCc2cc(F)c(F)c(F)c2)ncc1F` [Compound 525], the pest or weed control at 25 ppm lay in the range of 76 to 100% under setting [1] and 76 to 100% under setting [3]. Further, the pest or weed control at 100 ppm lay in the range of 76 to 100% under setting [2] and 76 to 100% under setting [4].
Turning to `O=[N+]([O-])c1ccccc1SNc1nc(OCc2ccc(F)c(C(F)(F)F)c2)ncc1F` [Compound 527], the pest or weed control at 25 ppm fell in the range of 51 to 75% under setting [1] and 0 to 25% under setting [3]. The pest or weed control at 100 ppm is 76 to 100% under setting [2] and 0 to 25% under setting [4].
In the case of `CCCNC(=S)Nc1nc(OCc2cccs2)ncc1F` [Compound 528], the pest or weed control at 25 ppm was in the range of 76 to 100% under setting [1] and 0 to 25% under setting [3]. Besides, the pest or weed control at 100 ppm is, setting by setting: under setting [2], 76 to 100%; under setting [4], 51 to 75%.
As for `O=C(Nc1ccsc1)Nc1nc(OCCNc2ccccc2)ncc1F` [Compound 529], the pest or weed control at 25 ppm runs as follows: under setting [1], 0 to 25%; under setting [3], 0 to 25%. Moreover, the pest or weed control at 100 ppm lay in the range of 0 to 25% under setting [2] and 0 to 25% under setting [4].
As to `CN1CCCC/C1=N\c1nc(OCc2cccs2)ncc1F` [Compound 530], the pest or weed control at 25 ppm reads like this: under setting [1], 76 to 100%; under setting [3], 51 to 75%. Besides, the pest or weed control at 100 ppm runs as follows: under setting [2], 76 to 100%; under setting [4], 76 to 100%.
On to `COc1cccc(COc2ncc(F)c(NC(=O)OCc3ccccc3)n2)c1` [Compound 531], for which the pest or weed control at 25 ppm lay in the range of 76 to 100% under setting [1] and 76 to 100% under setting [3]. The pest or weed control at 100 ppm under setting [2] was 76 to 100% and the pest or weed control at 100 ppm under setting [4] is 76 to 100%.
For the compound `COc1cccc(COc2ncc(F)c(N/N=C/c3ncc[nH]3)n2)c1` [Compound 532], the pest or weed control at 25 ppm under setting [1] fell in the range of 26 to 50% and the pest or weed control at 25 ppm under setting [3] was in the range of 0 to 25%. Moreover, the pest or weed control at 100 ppm fell in the range of 51 to 75% under setting [2] and 26 to 50% under setting [4].
For the compound `CCC(C)/C(C)=N/Nc1nc(OCc2ccc(C)cc2)ncc1F` (centres unmarked) [Compound 533], the pest or weed control at 25 ppm reads like this: under setting [1], 51 to 75%; under setting [3], 0 to 25%. The pest or weed control at 100 ppm lay within 51 to 75% under setting [2] and 26 to 50% under setting [4].
With `CCCNC(=O)Nc1nc(OCc2cccc(OC)c2)ncc1F` [Compound 534], the pest or weed control at 25 ppm under setting [1] lay in the range of 0 to 25% and the pest or weed control at 25 ppm under setting [3] lay within 0 to 25%. Also, the pest or weed control at 100 ppm runs as follows: under setting [2], 26 to 50%; under setting [4], 26 to 50%.
As to `COc1cccc(COc2ncc(F)c(NC(=O)Nc3ccccc3F)n2)c1` [Compound 535], the pest or weed control at 25 ppm fell in the range of 0 to 25% under setting [1] and 0 to 25% under setting [3]. For the same compound, the pest or weed control at 100 ppm reads like this: under setting [2], 0 to 25%; under setting [4], 0 to 25%.
For the compound `CCCNC(=O)Nc1nc(OCc2ccc(C)cc2)ncc1F` [Compound 536], the pest or weed control at 25 ppm is 0 to 25% under setting [1] and 26 to 50% under setting [3]. In addition, the pest or weed control at 100 ppm by setting is: under setting [2], 0 to 25%; under setting [4], 26 to 50%.
Turning to `CCCCOc1ccc(COc2ncc(F)c(N)n2)cc1` [Compound 537], the pest or weed control at 25 ppm lay in the range of 76 to 100% under setting [1] and 76 to 100% under setting [3]. Further, the pest or weed control at 100 ppm reads like this: under setting [2], 76 to 100%; under setting [4], 76 to 100%.
With `Fc1ccccc1NC(=S)Nc1nc(OCc2ccccc2)ncc1F` [Compound 539], the pest or weed control at 25 ppm by setting is: under setting [1], 76 to 100%; under setting [3], 0 to 25%. Further, the pest or weed control at 100 ppm reads like this: under setting [2], 76 to 100%; under setting [4], 0 to 25%.
For `Nc1nc(OCc2ccc(Cl)cc2Cl)ncc1F` [Compound 540], the pest or weed control at 25 ppm fell in the range of 76 to 100% under setting [1] and 76 to 100% under setting [3]. Also, the pest or weed control at 100 ppm by setting is: under setting [2], 76 to 100%; under setting [4], 76 to 100%.
As to `COc1ccccc1COc1ncc(F)c(/N=C/N2CCOCC2)n1` [Compound 541], the pest or weed control at 25 ppm by setting is: under setting [1], 76 to 100%; under setting [3], 76 to 100%. In addition, the pest or weed control at 100 ppm runs as follows: under setting [2], 76 to 100%; under setting [4], 76 to 100%.
Turning to `CCOCc1cccc(COc2ncc(F)c(N)n2)c1` [Compound 543], the pest or weed control at 25 ppm reads like this: under setting [1], 76 to 100%; under setting [3], 76 to 100%. The pest or weed control at 100 ppm is, setting by setting: under setting [2], 76 to 100%; under setting [4], 76 to 100%.
As to `CC(Oc1ncc(F)c(N)n1)c1c(F)c(F)c(F)c(F)c1F` (centres unmarked) [Compound 544], the pest or weed control at 25 ppm under setting [1] lay within 0 to 25% and the pest or weed control at 25 ppm under setting [3] was in the range of 0 to 25%. For the same compound, the pest or weed control at 100 ppm is, setting by setting: under setting [2], 26 to 50%; under setting [4], 0 to 25%.
For the compound `CN(C)CCOc1ncc(F)c(N)n1` [Compound 545], the pest or weed control at 25 ppm is, setting by setting: under setting [1], 0 to 25%; under setting [3], 0 to 25%. Also, the pest or weed control at 100 ppm fell in the range of 26 to 50% under setting [2] and 51 to 75% under setting [4].
In the case of `Nc1nc(COc2ccc(COc3ncc(F)c(N)n3)cc2)ncc1F` [Compound 546], the pest or weed control at 25 ppm is, setting by setting: under setting [1], 51 to 75%; under setting [3], 51 to 75%. Besides, the pest or weed control at 100 ppm fell in the range of 51 to 75% under setting [2] and 0 to 25% under setting [4].
`Nc1nc(OCc2ccc(F)c(Cl)c2)ncc1F` [Compound 547]: the pest or weed control at 25 ppm by setting is: under setting [1], 76 to 100%; under setting [3], 76 to 100%. Also, the pest or weed control at 100 ppm reads like this: under setting [2], 76 to 100%; under setting [4], 76 to 100%.
Turning to `CC(C)NC(=O)Nc1nc(OCc2cccc(C#N)c2)ncc1F` [Compound 548], the pest or weed control at 25 ppm by setting is: under setting [1], 0 to 25%; under setting [3], 0 to 25%. Further, the pest or weed control at 100 ppm is, setting by setting: under setting [2], 0 to 25%; under setting [4], 0 to 25%.
For `Nc1nc(Oc2ccc(Cl)nc2)ncc1F` [Compound 549], the pest or weed control at 25 ppm reads like this: under setting [1], 26 to 50%; under setting [3], 0 to 25%. Also, the pest or weed control at 100 ppm runs as follows: under setting [2], 0 to 25%; under setting [4], 0 to 25%.
Take `COc1cccc(COc2ncc(F)c(NC(C)=O)n2)c1` [Compound 550]: the pest or weed control at 25 ppm was in the range of 76 to 100% (24 h, one day protectant, read-out: SETTTR 1DP 25 ppm) and 76 to 100% (72 h, three day curative, read-out: SEPTTR 3DC 25 ppm). For the same compound, the pest or weed control at 100 ppm lay within 76 to 100% (24 h, one day protectant, read-out: SEPTTR 1DP 100 ppm) and 76 to 100% (72 h, three day curative, read-out: SEPTTR 3DC 100 ppm).
